According to patent US20160222024A1, “S-ENANTIOMER OF TETRACYCLIC INDOLE DERIVATIVE AS PBR LIGANDS” (priority 2013, published 2016):
pKi: −log10 of the molar value. Like-named read-outs stand apart in the source and are kept apart here.

Key:
TSPO [1] = settings: ratio of low affinity site to high affinity site; racemates
Protocol: (§1) Membrane protein was prepared from human platelets obtained from 4 donor whole blood samples. […] Platelet pellets were homogenized in 10 ml buffer 1 (0.32 mM sucrose, 5 mM Tris base, 1 mM MgCl2, pH 7.4, 4° C.). The homogenates were centrifuged at 48,000×g for 15 minutes at 4° C. in a Beckman J2-MC centrifuge. The supernatant was removed and pellets were re-suspended in at least 10 ml buffer 2 (50 mM Tris base, 1 mM MgCl2, pH 7.4, 4° C.) and washed by centrifugation at 48,000×g for 15 mM at 4° C. in buffer 2. Membranes were suspended in 2 ml buffer 2 and the protein concentration was determined using Protein Assay Kit II (Bio Rad cat #500-0002). Aliquots were stored at −80° C. until use.
(§2) Aliquots of membrane suspension were thawed and homogenized with assay buffer 3 (50 mM Tris base, 140 mM NaCl, 1.5 mM MgCl2, 5 mM KCl, 1.5 mM CaCl2, pH 7.4, 37° C.). […] GE180 was diluted at 11 serial dilutions ranging from 100 μM to 1 nM. Total and nonspecific binding assessments were also performed. 160 μL of platelet membranes diluted to 30 μg/mL were added to the assay plate for a final volume of 200 μL/well. Assay plates were incubated at 37° C. for at least one hour with termination of incubation by filtering onto GF/B glass fiber plates (Perkin Elmer; cat #6005177) pre-soaked in 0.1% PEI in saline for 60 minutes. Assay plates were rinsed five to six times with ice cold buffer 4 (50 mM Tris Base, 1.4 mM MgCl2, pH 7.4, 4° C.) on a Perkin Elmer Filtermate 196. Plates were then dried, the bottoms sealed, and 50 μL of MicroScint 20 (Perkin Elmer cat #6013621) was added to each well. After sealing the tops, the plates were allowed to equilibrate for at least 30 minutes and the captured radioactivity was counted on a Perkin Elmer TopCount NTX.

TSPO [2] = target: T1, TSPO (Homo sapiens, UniProt P30536); test: biochemical
Protocol: as §1, §2

TSPO [3] = target: T2, TSPO (Homo sapiens, UniProt P30536, T147A); test: biochemical
Protocol: as §1, §2

TSPO [4] = settings: ratio of low affinity site to high affinity site; resolved enantiomers
Protocol: (§3) Membrane protein was prepared from human platelets obtained from 4 donor whole blood samples. Two of these donor samples were previously identified as having high affinity and 2 identified as having low affinity based on PBR28 binding affinity. Platelet pellets were homogenized in 10 ml buffer 1 (0.32 mM sucrose, 5 mM Tris base, 1 mM MgCl2, pH 7.4, 4° C.). The homogenates were centrifuged at 48,000×g for 15 minutes at 4° C. in a Beckman J2-MC centrifuge. The supernatant was removed and pellets were re-suspended in at least 10 ml buffer 2 (50 mM Tris base, 1 mM MgCl2, pH 7.4, 4° C.) and washed by centrifugation at 48,000×g for 15 mM at 4° C. in buffer 2. Membranes were suspended in 2 ml buffer 2 and the protein concentration was determined using Protein Assay Kit II (Bio Rad cat #500-0002). Aliquots were stored at −80° C. until use.
(§4) Aliquots of membrane suspension were thawed and homogenized with assay buffer 3 (50 mM Tris base, 140 mM NaCl, 1.5 mM MgCl2, 5 mM KCl, 1.5 mM CaCl2, pH 7.4, 37° C.). […] Compound 1 was diluted on a Beckman Biomek 2000 workstation at 11 serial dilutions ranging from 1 μM to 0.01 nM. GE180 was diluted at 11 serial dilutions ranging from 100 μM to 1 nM. Total and nonspecific binding assessments were also performed. 160 μL of platelet membranes diluted to 30 μg/mL were added to the assay plate for a final volume of 200 μL/well. Assay plates were incubated at 37° C. for at least one hour with termination of incubation by filtering onto GF/B glass fiber plates (Perkin Elmer; cat #6005177) pre-soaked in 0.1% PEI in saline for 60 minutes. Assay plates were rinsed five to six times with ice cold buffer 4 (50 mM Tris Base, 1.4 mM MgCl2, pH 7.4, 4° C.) on a Perkin Elmer Filtermate 196. Plates were then dried, the bottoms sealed, and 50 μL of MicroScint 20 (Perkin Elmer cat #6013621) was added to each well. After sealing the tops, the plates were allowed to equilibrate for at least 30 minutes and the captured radioactivity was counted on a Perkin Elmer TopCount NTX.

TSPO [5] = target: T1, TSPO; test: biochemical; remark: listed apart in the source
Protocol: as §3, §4

TSPO [6] = target: T2, TSPO; test: biochemical; remark: listed apart in the source
Protocol: as §3, §4

TSPO [7] = settings: in vitro assay; LABs compared with HABs; cited from earlier work
TSPO [8] = settings: compared with [11C]PBR28; cited from earlier work

T2 sequence (P30536 2-169 T147A): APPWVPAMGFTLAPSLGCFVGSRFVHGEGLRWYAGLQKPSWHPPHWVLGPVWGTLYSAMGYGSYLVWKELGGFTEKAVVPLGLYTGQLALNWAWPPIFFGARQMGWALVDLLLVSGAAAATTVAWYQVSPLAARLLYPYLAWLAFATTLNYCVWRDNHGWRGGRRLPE
T1 sequence (P30536 2-169): as the sequence (P30536 2-169 T147A) above, with A146T counted along it

SMILES | Low:High affinity ratio (TSPO [4]) | pKi (TSPO [5]) | pKi (TSPO [6]) | further results
CCN(CC)C(=O)C1Sc2ccccc2-c2c1c1c(OC)cccc1n2CCF (racemic) [Compound 1, N,N-diethyl-11-(2-fluoroethyl)-7-methoxy-6,11-dihydrothiochromeno[4,3-b]indole-6-carboxamide] |  |  |  | Low:High affinity ratio (TSPO [1]): 9.87; pKi (TSPO [2]): 9.29; pKi (TSPO [3]): 10.30
CCN(CC)C(=O)[C@H]1CCCc2c1c1c(OC)cccc1n2CCF (stereo in doubt) [GE180, 9-(2-Fluoro-ethyl)-5-methoxy-2,3,4,9-tetrahydro-1H-carbazole-4-carboxylic acid diethylamide] | 3 |  |  | Low:High affinity ratio (TSPO [1]): 15.44
CCN(CC)C(=O)[C@@H]1Sc2ccccc2-c2c1c1ccc(OC)cc1n2CCF [Compound 1 E1] | 2 | 7.51 | 7.82 | 
CCN(CC)C(=O)[C@H]1Sc2ccccc2-c2c1c1ccc(OC)cc1n2CC[18F] [Compound 1 E2] | 1 | 8.40 | 8.52 | 
COc1ccccc1CN(C(C)=O)c1cnccc1Oc1ccccc1 [PBR28, N-(2-methoxybenzyl)-N-(4-phenoxypyridin-3-yl)acetamide] | 28 | 6.93 | 8.40 | 
COc1ccccc1CN(C(C)=O)c1cnccc1Oc1ccccc1 [[^3H]PBR28] |  |  |  | lower TSPO affinity in LABs than in HABs (TSPO [7]): more than 10 fold
CCC(C)N(C)C(=O)c1cc2ccccc2c(-c2ccccc2Cl)n1 (stereo not shown) [[^11C]PK11195] |  |  |  | in vivo specific binding in monkey brain, lower than that reported for [11C]PBR28 (TSPO [8]): ~80 fold
